From ChEMBL document CHEMBL1201862, “PubChem BioAssay data set” (2004)
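Step 1: Grow cells in 96-well plates. Step 2: Expose to compound for 48 hours at 5 concentrations. Step 3: Interpolate endpoints linearly; if unreached, use highest concentration. The concentration for 50% growth inhibition is given as GI50.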 Activity calls are given as the source filed them. Rule as the data show it: active = GI50 up to about 1.1 µM and inactive = higher.

Columns and labels:
Experiment in all cases: NCI tumour cell line growth inhibition, 48 h
SK-MEL-28 = system: SK-MEL-28
CCRF-CEM = system: CCRF-CEM
SW-620 = system: SW-620
K562 = system: K562
Malme-3M = system: Malme-3M
RXF 393 = system: RXF 393
HOP-92 = system: HOP-92
HOP-62 = system: HOP-62
OVCAR-4 = system: OVCAR-4
TK-10 = system: TK-10
RPMI-8226 = system: RPMI-8226
SF-268 = system: SF-268
NCI-H23 = system: NCI-H23
HL-60 = system: HL-60
SF-539 = system: SF-539
A549 = system: A549
SNB-75 = system: SNB-75
UO-31 = system: UO-31
SK-MEL-2 = system: SK-MEL-2

Measured: GI50

CS/C(=N\c1ccc([N+](=O)[O-])cc1C#N)NC(=O)c1ccccc1
inactive: SK-MEL-28 > 100 µM | CCRF-CEM > 100 µM | SW-620 > 100 µM | K562 > 100 µM | Malme-3M > 100 µM | RXF 393 40.4 µM | HOP-92 46 µM | HOP-62 > 100 µM | OVCAR-4 > 100 µM | TK-10 > 100 µM | RPMI-8226 > 100 µM | SF-268 > 100 µM | NCI-H23 > 100 µM | HL-60 > 100 µM | SF-539 > 100 µM | A549 > 100 µM | SNB-75 28.4 µM

Cc1nn(C(=O)CC(=O)Nc2ccccc2Cl)c(C)c1/N=N/c1ccccc1Cl
inactive: UO-31 > 100 µM | SK-MEL-28 > 100 µM | CCRF-CEM > 100 µM | SW-620 > 100 µM | K562 > 100 µM | Malme-3M > 100 µM | RXF 393 > 100 µM | HOP-92 > 100 µM | HOP-62 > 100 µM | OVCAR-4 > 100 µM | TK-10 > 100 µM | SF-268 85.7 µM | NCI-H23 > 100 µM | HL-60 > 100 µM | SF-539 80.9 µM | A549 > 100 µM | SNB-75 82 µM | SK-MEL-2 > 100 µM

O=C(Nc1ccc(Cl)cc1Cl)C1C(=O)N(c2ccc(Cl)cc2Cl)C(=O)/C1=N\Nc1ccc([N+](=O)[O-])cc1[N+](=O)[O-] (stereo not given)
inactive: UO-31 15.8 µM | SK-MEL-28 47.8 µM | CCRF-CEM 23.1 µM | SW-620 > 100 µM | K562 14.7 µM | Malme-3M 64 µM | HOP-92 23.3 µM | HOP-62 45.8 µM | OVCAR-4 43.5 µM | TK-10 > 100 µM | RPMI-8226 22.7 µM | SF-268 22.3 µM | NCI-H23 23.9 µM | HL-60 35.2 µM | SF-539 36.6 µM | A549 > 100 µM | SNB-75 27.3 µM | SK-MEL-2 42.9 µM

Fc1ccc(F)c(C2SCc3nc4ccccc4n32)c1 (stereo not given)
inactive: UO-31 41.3 µM | CCRF-CEM 47.6 µM | SW-620 > 100 µM | K562 37.1 µM | Malme-3M 57.1 µM | RXF 393 67.6 µM | HOP-92 28.5 µM | HOP-62 > 100 µM | OVCAR-4 95.7 µM | TK-10 34.3 µM | RPMI-8226 40 µM | SF-268 66.4 µM | NCI-H23 46.2 µM | HL-60 20.1 µM | SF-539 > 100 µM | A549 71.4 µM | SNB-75 > 100 µM

CCOC(=O)/C=C1\Nc2ccccc2-n2nnnc21
inactive: UO-31 > 100 µM | SK-MEL-28 > 100 µM | CCRF-CEM > 100 µM | SW-620 23.7 µM | K562 > 100 µM | Malme-3M > 100 µM | RXF 393 > 100 µM | HOP-92 > 100 µM | HOP-62 > 100 µM | OVCAR-4 > 100 µM | TK-10 > 100 µM | RPMI-8226 64.9 µM | SF-268 > 100 µM | NCI-H23 > 100 µM | HL-60 > 100 µM | SF-539 > 100 µM | A549 > 100 µM | SNB-75 > 100 µM | SK-MEL-2 > 100 µM

Cc1ccc(S(=O)(=O)N2CCSCCSCCSCCN(S(=O)(=O)c3ccc(C)cc3)CC2)cc1
inactive: UO-31 > 100 µM | SK-MEL-28 > 100 µM | SW-620 > 100 µM | K562 > 100 µM | RXF 393 > 100 µM | HOP-92 > 100 µM | HOP-62 > 100 µM | OVCAR-4 > 100 µM | TK-10 > 100 µM | RPMI-8226 > 100 µM | SF-268 > 100 µM | NCI-H23 > 100 µM | HL-60 > 100 µM | SF-539 > 100 µM | A549 > 100 µM | SNB-75 61 µM | SK-MEL-2 > 100 µM

C1=C(c2ccccc2)C(OC2Oc3ccccc3C=C2c2ccccc2)Oc2ccccc21 (stereo not given)
inactive: UO-31 > 100 µM | SK-MEL-28 > 100 µM | CCRF-CEM > 100 µM | SW-620 31.3 µM | K562 > 100 µM | Malme-3M > 100 µM | RXF 393 > 100 µM | HOP-92 > 100 µM | HOP-62 > 100 µM | TK-10 > 100 µM | RPMI-8226 33.6 µM | SF-268 > 100 µM | NCI-H23 > 100 µM | HL-60 > 100 µM | A549 > 100 µM | SNB-75 24.6 µM | SK-MEL-2 > 100 µM

Cc1ccc(NC(=O)CCc2nnc(S)[nH]2)cc1
inactive: UO-31 > 100 µM | SK-MEL-28 > 100 µM | CCRF-CEM > 100 µM | SW-620 > 100 µM | K562 > 100 µM | Malme-3M > 100 µM | HOP-92 > 100 µM | HOP-62 > 100 µM | OVCAR-4 > 100 µM | TK-10 > 100 µM | RPMI-8226 > 100 µM | SF-268 > 100 µM | NCI-H23 > 100 µM | HL-60 > 100 µM | SF-539 > 100 µM | A549 > 100 µM | SNB-75 83.2 µM | SK-MEL-2 > 100 µM

COC(=O)c1ccccc1C1CN=NC12Cc1cccc(C)c1C2=O (stereo not given)
inactive: UO-31 20.8 µM | SK-MEL-28 68.2 µM | CCRF-CEM 52.7 µM | SW-620 > 100 µM | K562 53.1 µM | Malme-3M 43.7 µM | RXF 393 11.5 µM | HOP-92 25.5 µM | HOP-62 45.2 µM | OVCAR-4 33 µM | TK-10 65.9 µM | RPMI-8226 29 µM | SF-268 61.4 µM | NCI-H23 51.9 µM | HL-60 24.7 µM | SF-539 > 100 µM | A549 39.3 µM | SNB-75 33.3 µM | SK-MEL-2 46.1 µM

Nc1cn(C2OC(CC(c3ccccc3)(c3ccccc3)c3ccccc3)C(O)C2O)c(=O)[nH]c1=O (stereo not given)
inactive: UO-31 31.6 µM | SK-MEL-28 29.3 µM | CCRF-CEM 23.3 µM | SW-620 14.8 µM | K562 23.4 µM | Malme-3M 23.5 µM | RXF 393 6.64 µM | HOP-92 12.7 µM | HOP-62 23.4 µM | TK-10 26.4 µM | RPMI-8226 18.7 µM | SF-268 34.7 µM | NCI-H23 23.5 µM | HL-60 17.3 µM | A549 23 µM | SNB-75 > 100 µM | SK-MEL-2 28 µM

Cc1cc(O)c(C=O)c(C)c1CCC1(C)C=Cc2cc(O)ccc2O1 (stereo not given)
inactive: SK-MEL-28 22.7 µM | CCRF-CEM 17.1 µM | SW-620 20.9 µM | K562 24.3 µM | Malme-3M 24.8 µM | HOP-92 22.2 µM | HOP-62 20 µM | OVCAR-4 21.9 µM | TK-10 46.5 µM | RPMI-8226 20.9 µM | SF-268 30.3 µM | NCI-H23 16.7 µM | HL-60 22.8 µM | SF-539 18.3 µM | A549 35.9 µM | SNB-75 22.6 µM | SK-MEL-2 24.1 µM

N#C/C(=C1\SC(/N=N/c2ccccc2)C(=O)N1c1ccccc1)c1nc2ccccc2[nH]1 (stereo not given)
inactive: UO-31 24.2 µM | SK-MEL-28 > 100 µM | CCRF-CEM 42.8 µM | SW-620 > 100 µM | K562 36.3 µM | Malme-3M > 100 µM | RXF 393 28.6 µM | HOP-92 23.5 µM | HOP-62 23.4 µM | OVCAR-4 66.7 µM | TK-10 48.9 µM | SF-268 > 100 µM | NCI-H23 > 100 µM | HL-60 48.8 µM | SF-539 29.7 µM | A549 > 100 µM | SNB-75 36.7 µM | SK-MEL-2 68.5 µM

Fc1ccc(/N=C2C=C/C(=N\c3ccc(F)cc3)c3ccccc3\2)cc1
inactive: UO-31 > 100 µM | SK-MEL-28 > 100 µM | CCRF-CEM > 100 µM | SW-620 > 100 µM | K562 > 100 µM | Malme-3M > 100 µM | RXF 393 92.3 µM | HOP-92 19.4 µM | HOP-62 31.4 µM | TK-10 > 100 µM | RPMI-8226 > 100 µM | SF-268 40.2 µM | NCI-H23 72.1 µM | HL-60 > 100 µM | SF-539 54.1 µM | A549 > 100 µM | SNB-75 > 100 µM | SK-MEL-2 > 100 µM

O=C(O)C(Cc1ccccc1)N1C(=O)N/C(=C\c2ccc(F)cc2)C1=O (stereo not given)
inactive: UO-31 > 100 µM | CCRF-CEM > 100 µM | SW-620 > 100 µM | K562 > 100 µM | RXF 393 > 100 µM | HOP-92 > 100 µM | HOP-62 > 100 µM | OVCAR-4 > 100 µM | TK-10 > 100 µM | RPMI-8226 > 100 µM | NCI-H23 > 100 µM | HL-60 > 100 µM | SF-539 > 100 µM | A549 > 100 µM | SNB-75 > 100 µM | SK-MEL-2 > 100 µM

O=S(=O)(O)c1ccc([Se][Se]c2ccc(S(=O)(=O)O)cc2)cc1
inactive: UO-31 > 100 µM | SK-MEL-28 > 100 µM | CCRF-CEM > 100 µM | SW-620 > 100 µM | K562 > 100 µM | Malme-3M > 100 µM | RXF 393 > 100 µM | HOP-92 > 100 µM | HOP-62 > 100 µM | OVCAR-4 > 100 µM | TK-10 > 100 µM | RPMI-8226 72.4 µM | SF-268 > 100 µM | NCI-H23 > 100 µM | HL-60 > 100 µM | SF-539 > 100 µM | A549 > 100 µM | SNB-75 > 100 µM | SK-MEL-2 > 100 µM
